These results are taken from PubChem BioAssay AID1259411 (Chemical Carcinogenesis Research Information System (CCRIS), 2018).

In this data set the test system is rodent carcinogenicity bioassays, tumor incidence. The experiment in a line: CCRIS carcinogenicity studies. An outline of the steps:
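Archive of carcinogenicity, mutagenicity, tumor promotion and tumor inhibition results drawn from journals, NCI reports and other sources, expert-reviewed; covers 1985-2011 and is no longer updated.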

Activity calls are given as the source filed them. The rule behind the calls is not given here.

Regarding `O=S(=O)(O)c1ccc2c(N=Nc3ccc(S(=O)(=O)O)c4ccccc34)c(O)c(S(=O)(=O)O)cc2c1`, the carcinogen call (Species: MOUSE, Strain/Sex: SWISS-WEBSTER/FEMALE, Route: DERMAL, Dose: 0, 1% IN 0.1 ML DISTILLED WATER 1/WK FOR 19.5 MO (STUDY DURATION: 19.5 MO)) was “inactive; negative”; the carcinogen call (Species: MOUSE, Strain/Sex: SWISS-WEBSTER/MALE, Route: DERMAL, Dose: 0, 1% IN 0.1 ML DISTILLED WATER 1/WK FOR 19.5 MO (STUDY DURATION: 19.5 MO)) is “inactive; negative”; the carcinogen call (Species: RAT, Strain/Sex: WISTAR/FEMALE, Route: ORAL, Dose: 0, 50, 250, 1250 MG/KG IN THE DIET TO PUPS OF PARENTS EXPOSED TO THE SAME DOSE LEVELS FOR 60 D PRIOR TO MATING AND CONTI, Dose: 0, 50, 250, 1250 MG/KG IN THE DIET TO PUPS OF PARENTS EXPOSED TO THE SAME DOSE LEVELS FOR 60 D PRIOR TO MATING AND CONTI) is “inactive; negative”; the carcinogen call (Species: RAT, Strain/Sex: WISTAR/MALE, Route: ORAL, Dose: 0, 50, 250, 1250 MG/KG IN THE DIET TO PUPS OF PARENTS EXPOSED TO THE SAME DOSE LEVELS FOR 60 D PRIOR TO MATING AND CONTI, Dose: 0, 50, 250, 1250 MG/KG IN THE DIET TO PUPS OF PARENTS EXPOSED TO THE SAME DOSE LEVELS FOR 60 D PRIOR TO MATING AND CONTI) was “inactive; negative”.

For the molecule `Nc1ccc([N+](=O)[O-])cc1`, the carcinogen call (Species: MOUSE, Strain/Sex: B6C3F1/FEMALE, Route: GAVAGE, Dose: 0, 3, 30, 100 MG/KG IN CORN OIL 5 D/WK FOR 103 WK (STUDY DURATION: 104 WK), Dose: 0, 3, 30, 100 MG/KG IN CORN OIL 5 D/WK FOR 103 WK (STUDY DURATION: 104 WK)) is “inactive; negative”; the carcinogen call (Species: MOUSE, Strain/Sex: B6C3F1/MALE, Route: GAVAGE, Dose: 0, 3, 30, 100 MG/KG IN CORN OIL 5 D/WK FOR 103 WK (STUDY DURATION: 104 WK), Dose: 0, 3, 30, 100 MG/KG IN CORN OIL 5 D/WK FOR 103 WK (STUDY DURATION: 104 WK), Tumor Site: Type of Lesion: LIVER: HEMANGIOSARCOMA, ALL ORGANS: HEMANGIOMA OR HEMANGIOSARCOMA) was “equivocal”; the carcinogen call (Species: RAT, Strain/Sex: STRAIN CD/MALE, FEMALE, Route: GAVAGE, Dose: 0, 0.25, 1.5, 9 MG/KG IN CORN OIL 1/D 7 D/WK FOR 24 MO (STUDY DURATION: 24 MO), Dose: 0, 0.25, 1.5, 9 MG/KG IN CORN OIL 1/D 7 D/WK FOR 24 MO (STUDY DURATION: 24 MO)) is “inactive; negative”.

Turning to `COc1ccc2c3c1O[C@H]1[C@@H](O)C=C[C@H]4[C@@H](C2)N(C)CC[C@@]341`, the carcinogen call was “inactive; negative” (Species: MOUSE, Strain/Sex: B6C3F1/FEMALE, Route: ORAL, Dose: 0, 750, 1500, 3000 PPM IN DIET FOR UP TO 106 WK (STUDY DURATION: 106 WK), Dose: 0, 750, 1500, 3000 PPM IN DIET FOR UP TO 106 WK (STUDY DURATION: 106 WK)); “inactive; negative” (Species: MOUSE, Strain/Sex: B6C3F1/MALE, Route: ORAL, Dose: 0, 750, 1500, 3000 PPM IN DIET FOR UP TO 106 WK (STUDY DURATION: 106 WK), Dose: 0, 750, 1500, 3000 PPM IN DIET FOR UP TO 106 WK (STUDY DURATION: 106 WK)); “inactive; negative” (Species: RAT, Strain/Sex: F344/FEMALE, Route: ORAL, Dose: 0, 400, 800, 1600 PPM IN DIET FOR UP TO 106 WK (STUDY DURATION: 106 WK), Dose: 0, 400, 800, 1600 PPM IN DIET FOR UP TO 106 WK (STUDY DURATION: 106 WK)); “inactive; negative” (Species: RAT, Strain/Sex: F344/MALE, Route: ORAL, Dose: 0, 400, 800, 1600 PPM IN DIET FOR UP TO 106 WK (STUDY DURATION: 106 WK), Dose: 0, 400, 800, 1600 PPM IN DIET FOR UP TO 106 WK (STUDY DURATION: 106 WK)).

As to `C[C@]12CC[C@H]3[C@@H](CCC4=CC(=O)CC[C@@]43C)[C@@H]1CC[C@@H]2O`, the carcinogen call is “active; positive” (Species: MOUSE, Route: SUBCUTANEOUS IMPLANT, Tumor Site: Type of Lesion: MAMMARY GLAND, VAGINA) and “active; positive” (Species: MOUSE, Route: SUBCUTANEOUS, Tumor Site: Type of Lesion: GENITAL TRACT).

`Cc1ccc2cc3c(ccc4ccccc43)c3c2c1CC3O` (stereo not drawn): the carcinogen call (Species: RAT, Strain/Sex: SPRAGUE-DAWLEY/FEMALE, Route: SUBCUTANEOUS, Dose: 0, 0.2 UMOL IN 0.1 ML SESAME OIL:DMSO (9:1) 3/WK FOR 20 DOSES (STUDY DURATION: 52 WK), Tumor Site: Type of Lesion: INJECTION SITE: SARCOMA) is “active; positive”.

Turning to `O=CNc1nc(-c2ccc([N+](=O)[O-])o2)cs1`, the carcinogen call (Species: DOG, Route: ORAL, Tumor Site: Type of Lesion: URINARY BLADDER, GALL BLADDER) was “active; positive”; the carcinogen call (Species: MOUSE, Route: ORAL, Tumor Site: Type of Lesion: URINARY BLADDER) is “active; positive”; the carcinogen call (Species: MOUSE, Strain/Sex: CD-1/FEMALE, Route: ORAL, Dose: 0, 0.1% IN DIET FOR 36 WK (STUDY DURATION: 81 WK), Tumor Site: Type of Lesion: BLADDER: TRANSITIONAL CELL CARCINOMA, SPINDLE CELL TUMOR, SQUAMOUS CELL CARCINOMA) was “active; positive”; the carcinogen call (Species: MOUSE, Strain/Sex: CD-1/MALE, Route: ORAL, Dose: 0, 0.1% IN DIET FOR 40 WK (STUDY DURATION: 70 WK), Tumor Site: Type of Lesion: BLADDER: TRANSITIONAL CELL CARCINOMA, SPINDLE CELL TUMOR, SQUAMOUS CELL CARCINOMA) is “active; positive”; the carcinogen call (Species: RAT, Route: ORAL, Tumor Site: Type of Lesion: KIDNEY, MAMMARY GLAND) is “active; positive”; the carcinogen call (Species: RAT, Strain/Sex: F344/MALE, Route: ORAL, Dose: 0.001-0.2% IN DIET FOR 30 WK, Tumor Site: Type of Lesion: URINARY BLADDER: CARCINOMA) was “active; positive”. For the same molecule, the carcinogen call is “active; positive” (Species: RAT, Strain/Sex: SPRAGUE-DAWLEY/FEMALE, Route: ORAL, Dose: 0, 0.188% IN DIET FOR 20 WK FOLLOWED BY CONTROL DIET FOR 20 WK (STUDY DURATION: 40 WK), Tumor Site: Type of Lesion: BLADDER: TRANSITIONAL CELL CARCINOMA) and “active; positive” (Species: RAT, Strain/Sex: SPRAGUE-DAWLEY/FEMALE, Route: ORAL, Dose: 0.188% IN DIET FOR 20 WK THEN BASAL DIET FOR 20 WK, Tumor Site: Type of Lesion: URINARY BLADDER: TRANSITIONAL CELL CARCINOMA).

With `O=S(=O)(O)OCc1c2ccccc2c2ccc3cccc4ccc1c2c43`, the carcinogen call is “active; positive” (Species: MOUSE, Strain/Sex: B6C3F1/MALE, Route: INTRAPERITONEAL, Dose: 0, 0.0025 UMOL/G ONCE AT 12 DAYS OF AGE (STUDY DURATION: 10 MO), Tumor Site: Type of Lesion: LIVER: HEPATOMA) and “active; positive” (Species: RAT, Strain/Sex: SPRAGUE-DAWLEY/FEMALE, Route: SUBCUTANEOUS, Dose: 0, 0.2 UMOL 3/WK FOR 20 DOSES (STUDY DURATION: 52 WK), Tumor Site: Type of Lesion: INJECTION SITE: SARCOMA).

On to `NC(N)=NC(N)=NCCc1ccccc1`, for which the carcinogen call reads like this: (Species: MOUSE, Strain/Sex: B6C3F1/FEMALE, Route: ORAL, Dose: 0, 1200, 2500 PPM IN DIET, Dose: 0, 1200, 2500 PPM IN DIET) “inactive; negative”; (Species: MOUSE, Strain/Sex: B6C3F1/MALE, Route: ORAL, Dose: 0, 1200, 2500 PPM IN DIET, Dose: 0, 1200, 2500 PPM IN DIET) “inactive; negative”; (Species: RAT, Strain/Sex: F344/FEMALE, Route: ORAL, Dose: 0, 15000, 30000 PPM IN DIET, Dose: 0, 15000, 30000 PPM IN DIET) “inactive; negative”; (Species: RAT, Strain/Sex: F344/MALE, Route: ORAL, Dose: 0, 15000, 30000 PPM IN DIET, Dose: 0, 15000, 30000 PPM IN DIET) “inactive; negative”.
